Assay results reported in patent US11066383B2, “Inhibitors of indoleamine 2,3-dioxygenase and methods of their use” (BRISTOL-MYERS SQUIBB COMPANY, priority 2016, dated 2021).

Target: T1, human IDO1 (Homo sapiens, UniProt P14902)
T1 construct: expressed in transfected cells
Assay: HEK Human IDO-1 inhibition assay (kynurenine production in human IDO1/HEK293 cells)
Type: cell-based
Conditions: read-out: Bio Activity (μM) IC50
Method: HEK293 cells were transfected with a pCDNA-based mammalian expression vector harboring human IDO1 cDNA (NM 002164.2) by electroporation. They were cultured in medium (DMEM with 10% FBS) containing 1 mg/ml G418 for two weeks. Clones of HEK293 cells that stably expressed human IDO1 protein were selected and expanded for IDO inhibition assay.
The human IDO1/HEK293 cells were seeded at 10,000 cells per 50 μL per well with RPMI/phenol red free media contains 10% FBS in a 384-well black wall clear bottom tissue culture plate (Matrix Technologies LLC) 100 nL of certain concentration of compound was then added to each well using ECHO liquid handling systems. The cells were incubated for 20 hours in 37° C. incubator with 5% CO2.
The compound treatments were stopped by adding trichloroacetic acid (Sigma-Aldrich) to a final concentration at 0.2%. The cell plate was further incubated at 50° C. for 30 minute. The equal volume supernatant (20 μL) and 0.2% (w/v) Ehrlich reagent (4-dimethylaminobenzaldehyde, Sigma-Aldrich) in glacial acetic acid were mixed in a new clear bottom 384-well plate. This plate was then incubated at room temperature for 30 minute. The absorbance at 490 nm was measured on Envision plate reader.
Compound IC50 values were calculated using the counts of 500 nM of a reference standard treatment as one hundred percent inhibition, and counts of no compound but DMSO treatment as zero percent inhibition.

T1 sequence (P14902 whole entry): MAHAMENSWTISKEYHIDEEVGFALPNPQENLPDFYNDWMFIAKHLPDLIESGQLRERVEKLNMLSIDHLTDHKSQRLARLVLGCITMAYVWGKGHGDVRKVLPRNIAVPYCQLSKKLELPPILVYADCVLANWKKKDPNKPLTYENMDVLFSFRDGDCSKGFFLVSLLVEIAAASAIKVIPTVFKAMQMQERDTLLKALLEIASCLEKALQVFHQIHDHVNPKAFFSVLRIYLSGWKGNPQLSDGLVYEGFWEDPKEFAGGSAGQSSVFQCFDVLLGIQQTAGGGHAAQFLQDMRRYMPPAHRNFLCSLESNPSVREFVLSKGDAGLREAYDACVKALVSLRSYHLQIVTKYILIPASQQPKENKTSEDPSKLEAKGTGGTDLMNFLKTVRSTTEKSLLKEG

IC50	Compound
< 1 µM	C[C@@H](C(=O)NC(C)(C)c1ccc(Cl)cc1)[C@H]1CC[C@@H](c2ccnc3ccc(F)cc32)CC1 [Example 15, (R)-N-(2-(4-chlorophenyl)propan-2-yl)-2-((cis)-4-(6-fluoroquinolin-4-yl)cyclohexyl)propanamide]
< 10 µM	C[C@@H](C(=O)NCc1ccccc1)[C@H]1CC[C@@H](c2ccnc3ccc(F)cc32)CC1 [Example 18]
< 10 µM	C[C@@H](NC(=O)[C@H](C)[C@H]1CC[C@@H](c2ccnc3ccc(F)cc32)CC1)c1ccc(Cl)cc1 [Example 17, (R)-N-((R)-1-(4-chlorophenyl)ethyl)-2-((1s,4S)-4-(6-fluoroquinolin-4-yl)cyclohexyl)propanamide]
< 1 µM	C[C@H](NC(=O)[C@H](C)[C@H]1CC[C@@H](c2ccnc3ccc(F)cc32)CC1)c1ccccc1 [Example 13, (R)-2-((cis)-4-(6-fluoroquinolin-4-yl)cyclohexyl)-N-((S)-1-phenylethyl)propanamide]
< 10 µM	CC1(CC(=O)NC(C)(C)c2ccc(Cl)cc2)CCN(c2ccnc(C(F)(F)F)c2)CC1 [Example 8, N-(2-(4-chlorophenyl)propan-2-yl)-2-(4-methyl-1-(2-(trifluoromethyl)-pyridin-4-yl)piperidin-4-yl)acetamide]
< 1 µM	C[C@@H](C(=O)NCc1ccc(-c2ccccc2)cc1)[C@H]1CC[C@@H](c2ccnc3ccc(F)cc32)CC1 [Example 12, (R)-N-([1,1′-biphenyl]-4-ylmethyl)-2-((cis)-4-(6-fluoroquinolin-4-yl)cyclohexyl)propanamide]
< 0.1 µM	Cc1cc(Cl)ccc1CNC(=O)CC1(C)CCN(c2ccnc3ccc(F)cc23)CC1 [Example 1, N-(4-Chloro-2-methylbenzyl)-2-(1-(6-fluoroquinolin-4-yl)-4-methylpiperidin-4-yl)acetamide]
< 1 µM	C[C@H](NC(=O)CC1(C)CCN(c2ccnc(C(F)(F)F)c2)CC1)c1ccc(Cl)cc1 [Example 9, (S)-N-(1-(4-chlorophenyl)ethyl)-2-(4-methyl-1-(2-(trifluoromethyl)-pyridin-4-yl)piperidin-4-yl)acetamide]
< 0.1 µM	C[C@H](NC(=O)[C@H](C)[C@H]1CC[C@@H](c2ccnc3ccc(F)cc32)CC1)c1ccc(Cl)cc1 [Example 14, (R)-N-((S)-1-(4-chlorophenyl)ethyl)-2-((cis)-4-(6-fluoroquinolin-4-yl)cyclohexyl)propanamide]
< 0.1 µM	C[C@H](NC(=O)CC1(C)CCN(c2ccnc3ccc(F)cc23)CC1)c1ccc(Cl)cc1 [Example 4, (S)-N-(1-(4-chlorophenyl)ethyl)-2-(1-(6-fluoroquinolin-4-yl)-4-methylpiperidin-4-yl)acetamide]
< 0.1 µM	CC1(CC(=O)NC23CC4CC(CC(C4)C2)C3)CCN(c2ccnc3ccc(F)cc23)CC1 [Example 22, N-((3s,5s,7s)-Adamantan-1-yl)-2-(1-(6-fluoroquinolin-4-yl)-4-methylpiperidin-4-yl)acetamide]
< 1 µM	CC1(CC(=O)N[C@@]23C[C@@H]4C[C@@H](C[C@@](O)(C4)C2)C3)CCN(c2ccnc3ccc(F)cc23)CC1 [Example 23, 2-(1-(6-Fluoroquinolin-4-yl)-4-methylpiperidin-4-yl)-N-((1r,3s,5R,7S)-3-hydroxyadamantan-1-yl)acetamide]
< 1 µM	CC1(CC(=O)NCc2ccc(Cl)cc2)CCN(c2ccnc3ccc(F)cc23)CC1 [Example 5, N-(4-chlorobenzyl)-2-(1-(6-fluoroquinolin-4-yl)-4-methylpiperidin-4-yl)acetamide]
< 1 µM	CC[C@H](NC(=O)CC1(C)CCN(c2ccnc(C(F)(F)F)c2)CC1)c1ccccc1 [Example 6, (S)-2-(4-Methyl-1-(2-(trifluoromethyl)pyridin-4-yl)piperidin-4-yl)-N-(1-phenylpropyl)acetamide]
< 10 µM	CCCC(C(=O)NC12CC3CC(CC(C3)C1)C2)N1CCN(c2ccnc3ccc(F)cc23)CC1 (single isomer, unassigned) [Example 19-1]
< 1 µM	C[C@@H](C(=O)NCc1ccccc1Cl)[C@H]1CC[C@@H](c2ccnc3ccc(F)cc32)CC1 [Example 10, (R)—N-(2-chlorobenzyl)-2-((cis)-4-(6-fluoroquinolin-4-yl)cyclohexyl)propanamide]
< 1 µM	C[C@@H](C(=O)NC1(c2ccc(Cl)cc2Cl)CC1)[C@H]1CC[C@@H](c2ccnc3ccc(F)cc32)CC1 [Example 16, (R)-N-(1-(2,4-dichlorophenyl)cyclopropyl)-2-((cis)-4-(6-fluoroquinolin-4-yl)cyclohexyl)propanamide]
< 0.1 µM	CC1(CC(=O)NC(C)(C)c2ccc(Cl)cc2)CCN(c2ccnc3ccc(F)cc23)CC1 [Example 3, N-(2-(4-chlorophenyl)propan-2-yl)-2-(1-(6-fluoroquinolin-4-yl)-4-methylpiperidin-4-yl)acetamide]
< 0.1 µM	CC1(CC(=O)NC2(c3ccc(Cl)cc3Cl)CC2)CCN(c2ccnc3ccc(F)cc23)CC1 [Example 2, N-(1-(2,4-dichlorophenyl)cyclo-propyl)-2-(1-(6-fluoroquinolin-4-yl)-4-methylpiperidin-4-yl)acetamide]
< 1 µM	CC1(CC(=O)NC2(c3ccc(Cl)cc3Cl)CC2)CCN(c2ccnc(C(F)(F)F)c2)CC1 [Example 7, N-(1-(2,4-dichlorophenyl)cyclo-propyl)-2-(4-methyl-1-(2-(trifluoro-methyl)pyridin-4-yl)piperidin-4-yl)acetamide]
